Data published in ChEMBL document CHEMBL4431389, “Optimisation of a novel series of potent and orally bioavailable azanaphthyridine SYK inhibitors” (Bioorg Med Chem Lett, 2016).

biological target: albumin (Homo sapiens, UniProt P02768); assay: Binding affinity to human serum albumin by HPLC analysis; format: ADME; details: read-out: PB (converted)
Sequence (P02768 whole entry): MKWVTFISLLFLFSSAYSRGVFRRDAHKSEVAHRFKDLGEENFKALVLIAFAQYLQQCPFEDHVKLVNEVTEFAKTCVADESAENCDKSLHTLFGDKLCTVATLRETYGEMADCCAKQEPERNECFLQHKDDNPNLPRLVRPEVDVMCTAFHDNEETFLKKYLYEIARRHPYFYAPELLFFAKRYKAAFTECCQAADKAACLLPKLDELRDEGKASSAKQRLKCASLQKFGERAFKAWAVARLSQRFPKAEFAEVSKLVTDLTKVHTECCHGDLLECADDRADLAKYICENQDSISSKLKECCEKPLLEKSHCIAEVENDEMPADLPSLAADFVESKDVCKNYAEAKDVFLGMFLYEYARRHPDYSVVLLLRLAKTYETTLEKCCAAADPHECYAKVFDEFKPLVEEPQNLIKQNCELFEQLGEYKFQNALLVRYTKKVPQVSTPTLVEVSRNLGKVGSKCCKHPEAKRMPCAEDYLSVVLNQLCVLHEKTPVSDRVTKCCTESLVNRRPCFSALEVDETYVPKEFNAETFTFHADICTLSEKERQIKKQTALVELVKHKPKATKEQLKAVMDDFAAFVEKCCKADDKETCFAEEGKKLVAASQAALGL

| Structure (SMILES) | fraction unbound |
| --- | --- |
| CN(C)c1ccc(-c2cc3nccnc3c(NC[C@H]3CNCCC3(F)F)n2)cn1 | 0.05 |
| Cc1ccc(-c2cc3ncccc3c(NC[C@H]3CCCNC3)n2)cc1 | 0.05 |
| Cc1ccc(-c2cc3ncncc3c(NC[C@H]3CCCNC3)n2)cc1 | 0.09 |
| CN(C)c1ccc(-c2cc3nccnc3c(NCCC(N)=O)n2)cn1 | 0.04 |
| CN(C)c1ccc(-c2cc3nccnc3c(NCC(F)(F)F)n2)cn1 | 0.04 |
| CN(C)c1ccc(-c2cc3nccnc3c(NCCCCN)n2)cn1 | 0.11 |
| CN(C)c1ccc(-c2cc3nccnc3c(NC[C@@H]3CNCCC3(F)F)n2)cn1 | 0.05 |
| CN(C)c1ccc(-c2cc3nccnc3c(NC[C@H]3CNCCO3)n2)cn1 | 0.11 |
| CN(C)c1ccc(-c2cc3nccnc3c(NCCCCO)n2)cn1 | 0.08 |
| CN(C)c1ccc(-c2cc3nccnc3c(NC[C@@H]3CNCCO3)n2)cn1 | 0.12 |

The next lines start with the values.

| fraction unbound | Structure (SMILES) |
| --- | --- |
| 0.08 | CN(C)c1ccc(-c2cc3nccnc3c(NC[C@H]3CCCNC3)n2)cn1 |
| 0.07 | CN(C)c1ccc(-c2cc3nccnc3c(NC[C@H]3CNCCN3C)n2)cn1 |
| 0.09 | CN(C)c1ccc(-c2cc3nccnc3c(NC[C@@H]3CNCCN3C)n2)cn1 |
| 0.09 | Cc1ccc(-c2cc3nccnc3c(NC[C@H]3CCCNC3)n2)cc1 |
| 0.24 | c1cnc2c(NC[C@H]3CCCNC3)nc(-c3cn[nH]c3)cc2n1 |
| 0.09 | CN(C)c1ccc(-c2cc3nccnc3c(CCC3CCCNC3)n2)cn1 (racemic) |
| 0.25 | Cn1cc(-c2cc3nccnc3c(NC[C@H]3CCCNC3)n2)cn1 |
| 0.3 | c1cnc2c(NC[C@H]3CCCNC3)nc(N3CCNCC3)cc2n1 |
| 0.1 | CN(C)c1ccc(-c2cc3nccnc3c(OC[C@H]3CCCNC3)n2)cn1 |

biological target: Voltage-gated inwardly rectifying potassium channel KCNH2 (Homo sapiens, UniProt Q12809); assay: Inhibition of human ERG expressed in CHOK1 cell membranes after 2 hrs by cy3b-dofetilide-based fluorescence polarization assay; details: not given
Sequence (Q12809 whole entry): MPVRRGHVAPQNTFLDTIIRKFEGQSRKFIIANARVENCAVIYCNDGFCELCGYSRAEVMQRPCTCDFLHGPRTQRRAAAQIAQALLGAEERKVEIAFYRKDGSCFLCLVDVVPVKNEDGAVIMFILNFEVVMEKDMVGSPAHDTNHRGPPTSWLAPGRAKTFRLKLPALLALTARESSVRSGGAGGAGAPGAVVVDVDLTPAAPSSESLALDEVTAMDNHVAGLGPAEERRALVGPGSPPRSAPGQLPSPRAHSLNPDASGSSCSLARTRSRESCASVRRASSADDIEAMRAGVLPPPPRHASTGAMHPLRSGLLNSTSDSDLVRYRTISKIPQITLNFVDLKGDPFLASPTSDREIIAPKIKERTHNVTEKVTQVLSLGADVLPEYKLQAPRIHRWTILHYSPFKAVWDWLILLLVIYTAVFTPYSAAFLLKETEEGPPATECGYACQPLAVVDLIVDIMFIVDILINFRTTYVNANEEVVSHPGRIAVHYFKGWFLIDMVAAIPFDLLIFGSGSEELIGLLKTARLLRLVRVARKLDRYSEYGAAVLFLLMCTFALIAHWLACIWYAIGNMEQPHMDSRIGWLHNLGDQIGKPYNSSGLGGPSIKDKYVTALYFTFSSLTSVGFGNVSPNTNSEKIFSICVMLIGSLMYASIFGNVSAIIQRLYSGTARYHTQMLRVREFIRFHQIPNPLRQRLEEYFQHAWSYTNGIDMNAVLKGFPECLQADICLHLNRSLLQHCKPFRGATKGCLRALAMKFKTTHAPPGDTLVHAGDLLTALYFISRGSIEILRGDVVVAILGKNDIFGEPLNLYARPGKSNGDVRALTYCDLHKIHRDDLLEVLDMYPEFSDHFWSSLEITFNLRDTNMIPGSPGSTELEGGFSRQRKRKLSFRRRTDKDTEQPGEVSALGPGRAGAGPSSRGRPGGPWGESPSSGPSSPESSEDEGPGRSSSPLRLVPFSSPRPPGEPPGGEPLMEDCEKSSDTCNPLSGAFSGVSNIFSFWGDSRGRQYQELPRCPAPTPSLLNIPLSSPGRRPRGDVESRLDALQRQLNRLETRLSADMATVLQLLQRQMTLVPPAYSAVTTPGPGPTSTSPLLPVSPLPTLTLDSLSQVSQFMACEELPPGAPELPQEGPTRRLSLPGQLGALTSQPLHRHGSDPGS

| Structure (SMILES) | IC50 [nM] |
| --- | --- |
| CN(C)c1ccc(-c2cc3nccnc3c(NC[C@H]3CNCCC3(F)F)n2)cn1 | 20000 |
| CN(C)c1ccc(-c2cc3nccnc3c(NC[C@H]3CNCCN3C)n2)cn1 | 15800 |
| Cc1ccc(-c2cc3ncncc3c(NC[C@H]3CCCNC3)n2)cc1 | 10000 |
| CN(C)c1ccc(-c2cc3nccnc3c(NC[C@@H]3CNCCN3C)n2)cn1 | > 50100 |
| CN(C)c1ccc(-c2cc3nccnc3c(NCCC(N)=O)n2)cn1 | > 50100 |
| CN(C)c1ccc(-c2cc3nccnc3c(NCC(F)(F)F)n2)cn1 | > 50100 |
| CN(C)c1ccc(-c2cc3nccnc3c(NCCCCN)n2)cn1 | 39800 |
| c1cnc2c(NC[C@H]3CCCNC3)nc(-c3cn[nH]c3)cc2n1 | > 50100 |
| CN(C)c1ccc(-c2cc3nccnc3c(NC[C@H]3CNCCO3)n2)cn1 | > 50100 |
| Cn1cc(-c2cc3nccnc3c(NC[C@H]3CCCNC3)n2)cn1 | > 50100 |
| c1cnc2c(NC[C@H]3CCCNC3)nc(N3CCNCC3)cc2n1 | > 50100 |
| CN(C)c1ccc(-c2cc3nccnc3c(NCCCCO)n2)cn1 | 31600 |
| CN(C)c1ccc(-c2cc3nccnc3c(NC[C@@H]3CNCCO3)n2)cn1 | > 50100 |
| CN(C)c1ccc(-c2cc3nccnc3c(OC[C@H]3CCCNC3)n2)cn1 | 10000 |

system: not listed separately; assay: Lipophilicity, log D of the compound by chromatographic method; format: physicochemical; details: not given

| chromatographic logD | Structure (SMILES) |
| --- | --- |
| 5.7 | CN(C)c1ccc(-c2cc3nccnc3c(NCC(F)(F)F)n2)cn1 |
| 2.4 | CN(C)c1ccc(-c2cc3nccnc3c(CCC3CCCNC3)n2)cn1 (racemic) |

biological target: T1, Tyrosine-protein kinase SYK (Homo sapiens, UniProt P43405); assay: Inhibition of N-terminal 6His-tagged full length human recombinant SYK expressed in baculovirus using Biotin-AAAEEIYGEI as substrate after 60 mins by TR-FRET assay; details: not given

| Structure (SMILES) | IC50 [nM] |
| --- | --- |
| CN(C)c1ccc(-c2cc3nccnc3c(NC[C@H]3CNCCC3(F)F)n2)cn1 | 31.6 |
| Cc1ccc(-c2cc3ncccc3c(NC[C@H]3CCCNC3)n2)cc1 | 20 |
| Cc1ccc(-c2cc3ncncc3c(NC[C@H]3CCCNC3)n2)cc1 | 200 |
| CN(C)c1ccc(-c2cc3nccnc3c(NCCC(N)=O)n2)cn1 | 158 |
| CN(C)c1ccc(-c2cc3nccnc3c(NCC(F)(F)F)n2)cn1 | 126 |
| CN(C)c1ccc(-c2cc3nccnc3c(NC[C@@H]3CNCCC3(F)F)n2)cn1 | 2.51 |
| CN(C)c1ccc(-c2cc3nccnc3c(NC[C@H]3CNCCO3)n2)cn1 | 200 |
| CN(C)c1ccc(-c2cc3nccnc3c(NCCCCO)n2)cn1 | 200 |
| CN(C)c1ccc(-c2cc3nccnc3c(NC[C@@H]3CNCCO3)n2)cn1 | 25.1 |

Other lines, results leading:

| IC50 [nM] | Structure (SMILES) |
| --- | --- |
| 15.8 | CN(C)c1ccc(-c2cc3nccnc3c(NC[C@H]3CCCNC3)n2)cn1 |
| 79.4 | CN(C)c1ccc(-c2cc3nccnc3c(NC[C@H]3CNCCN3C)n2)cn1 |
| 50.1 | CN(C)c1ccc(-c2cc3nccnc3c(NC[C@@H]3CNCCN3C)n2)cn1 |
| 25.1 | Cc1ccc(-c2cc3nccnc3c(NC[C@H]3CCCNC3)n2)cc1 |
| 50.1 | c1cnc2c(NC[C@H]3CCCNC3)nc(-c3cn[nH]c3)cc2n1 |
| 251 | CN(C)c1ccc(-c2cc3nccnc3c(CCC3CCCNC3)n2)cn1 (racemic) |
| 31.6 | Cn1cc(-c2cc3nccnc3c(NC[C@H]3CCCNC3)n2)cn1 |
| > 25100 | c1cnc2c(NC[C@H]3CCCNC3)nc(N3CCNCC3)cc2n1 |
| 3.98 | CN(C)c1ccc(-c2cc3nccnc3c(OC[C@H]3CCCNC3)n2)cn1 |

biological target: Aurora kinase B (Homo sapiens, UniProt Q96GD4); assay: Inhibition of N-terminal-6His-tagged full length human Aurora B expressed in baculovirus using 5FAM-PKA-tide as substrate after 120 mins by fluorescence polarization assay; details: not given
Sequence (Q96GD4 whole entry): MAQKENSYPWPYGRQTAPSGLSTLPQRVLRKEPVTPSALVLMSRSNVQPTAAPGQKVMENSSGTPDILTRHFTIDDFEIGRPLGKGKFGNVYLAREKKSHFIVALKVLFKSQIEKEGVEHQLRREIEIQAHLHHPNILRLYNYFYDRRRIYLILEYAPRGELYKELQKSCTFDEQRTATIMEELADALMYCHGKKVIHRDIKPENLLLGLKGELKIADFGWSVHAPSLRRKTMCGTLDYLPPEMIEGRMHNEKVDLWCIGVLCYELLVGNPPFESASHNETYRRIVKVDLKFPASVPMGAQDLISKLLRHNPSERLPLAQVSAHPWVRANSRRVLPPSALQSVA

| IC50 [nM] | Structure (SMILES) |
| --- | --- |
| 50.1 | CN(C)c1ccc(-c2cc3nccnc3c(NCC(F)(F)F)n2)cn1 |

biological target: T1, Tyrosine-protein kinase SYK; assay: Inhibition of SYK in human B cells assessed as suppression of anti-IgM-induced CD69 surface expression preincubated for 30 mins followed by anti-IgM addition measured after 3.5 hrs by flow cytometric analysis; format: cell-based; details: not given

| Structure (SMILES) | IC50 [nM] |
| --- | --- |
| CN(C)c1ccc(-c2cc3nccnc3c(NC[C@H]3CNCCC3(F)F)n2)cn1 | 1580 |
| Cc1ccc(-c2cc3ncccc3c(NC[C@H]3CCCNC3)n2)cc1 | 794 |
| Cc1ccc(-c2cc3ncncc3c(NC[C@H]3CCCNC3)n2)cc1 | 3980 |
| CN(C)c1ccc(-c2cc3nccnc3c(NCCC(N)=O)n2)cn1 | 3980 |
| CN(C)c1ccc(-c2cc3nccnc3c(NCC(F)(F)F)n2)cn1 | > 10000 |
| CN(C)c1ccc(-c2cc3nccnc3c(NC[C@@H]3CNCCC3(F)F)n2)cn1 | 158 |
| CN(C)c1ccc(-c2cc3nccnc3c(NC[C@H]3CNCCO3)n2)cn1 | 1580 |
| CN(C)c1ccc(-c2cc3nccnc3c(NCCCCO)n2)cn1 | > 10000 |
| CN(C)c1ccc(-c2cc3nccnc3c(NC[C@@H]3CNCCO3)n2)cn1 | 316 |

The remaining lines, values ahead:

| IC50 [nM] | Structure (SMILES) |
| --- | --- |
| 316 | CN(C)c1ccc(-c2cc3nccnc3c(NC[C@H]3CCCNC3)n2)cn1 |
| 251 | CN(C)c1ccc(-c2cc3nccnc3c(NC[C@H]3CNCCN3C)n2)cn1 |
| 794 | Cc1ccc(-c2cc3nccnc3c(NC[C@H]3CCCNC3)n2)cc1 |
| 316 | c1cnc2c(NC[C@H]3CCCNC3)nc(-c3cn[nH]c3)cc2n1 |
| 1000 | CN(C)c1ccc(-c2cc3nccnc3c(CCC3CCCNC3)n2)cn1 (racemic) |
| 126 | Cn1cc(-c2cc3nccnc3c(NC[C@H]3CCCNC3)n2)cn1 |
| 126 | CN(C)c1ccc(-c2cc3nccnc3c(OC[C@H]3CCCNC3)n2)cn1 |
